The values below come from US6803186B2, “Compositions and methods for increasing amino acid absorption in mammals” (The IAMS Company, priority 2001, dated 2004).

Broadly, the Km is the concentration of substrate that gives half-maximal velocity.

One assay concerns the target T1, canine PepT1 (cPepT1) (Canis lupus familiaris, UniProt Q8WMX5).
T1 construct: endogenous in cells; host or cells: MDCK (Madin-Darby Canine Kidney) cells, whole-cell [3H]-GlySar uptake
T1 sequence (Q8WMX5 1-708): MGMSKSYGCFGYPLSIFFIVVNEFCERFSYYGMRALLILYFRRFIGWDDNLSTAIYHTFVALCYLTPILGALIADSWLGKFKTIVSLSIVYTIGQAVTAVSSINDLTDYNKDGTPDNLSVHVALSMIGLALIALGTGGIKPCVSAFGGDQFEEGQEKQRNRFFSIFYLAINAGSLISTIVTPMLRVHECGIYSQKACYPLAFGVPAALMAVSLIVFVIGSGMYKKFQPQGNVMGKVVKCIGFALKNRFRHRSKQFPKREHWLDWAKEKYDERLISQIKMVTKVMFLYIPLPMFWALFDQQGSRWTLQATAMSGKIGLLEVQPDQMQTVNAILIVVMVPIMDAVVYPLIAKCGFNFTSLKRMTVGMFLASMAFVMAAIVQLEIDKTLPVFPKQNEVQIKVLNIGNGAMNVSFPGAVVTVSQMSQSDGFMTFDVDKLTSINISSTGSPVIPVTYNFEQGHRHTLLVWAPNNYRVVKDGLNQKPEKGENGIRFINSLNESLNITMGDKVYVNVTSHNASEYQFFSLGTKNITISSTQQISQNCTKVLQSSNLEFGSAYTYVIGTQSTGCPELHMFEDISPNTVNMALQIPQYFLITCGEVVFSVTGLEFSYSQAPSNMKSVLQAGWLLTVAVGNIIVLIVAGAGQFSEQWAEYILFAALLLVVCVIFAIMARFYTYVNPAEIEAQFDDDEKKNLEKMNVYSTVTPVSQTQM
Put plainly: Substrate regulation of H+-dependent GlySar uptake capacity of MDCK cells cultured in DMEM (Example 3, Trials 1 and 2). The class given is cell-based. To be noted: 10 mM in DMEM, 24 h of culture. The procedure:
All cells were plated (60,000/2 cm^2 well) and cultured (95% air/5% CO2, 37° C.) for 24 h in Dulbecco's Modified Eagle Media/10% fetal calf serum (FCS)/1%Antibiotic/Antimicrobial solution (ABAM) (DMEM media). Following these initial common culture conditions, cells then were cultured in DMEM, or DMEM that contained 10 mM of Camosine, GlyPhe, Phe, or Gly. Media were changed every 24 h. Media treatments (n=8) were as follows:
The measurement of [^3H]Glysarcosine uptake was performed by using a 24-well cluster tray method (Kilberg M S. Measurement of amino acid transport by hepatocytes in suspension and monolayer culture. Methods Enzym 1989; 173:564-575. Matthews J C, Aslanian A, McDonald K K, Yang W, Malandro M S, Novak D A, Kilberg M S. An expression system for mammalian amino acid transport using a stably maintained episomal vector. Anal Biochem 1997; 254:208-214), and used in Examples 1 and 2. Cells were cultured for 30 min in air at 37° C. in depletion medium (25 mM Hepes/Tris (pH 7.5), 140 mM NaCl, 5.4 mM KCl, 1.8 mM CaCl2, 0.8 mM MgSO4, and 5 mM glucose), to normalize intracellular nutrient pools before transport. The transport assays are initiated by replacing depletion medium with uptake medium (Depletion medium adjusted to pH 6.0) that contained 100 μM GlySar (5 μCi/mL, with [^3H]-GlySar supplying 2.88% of total GlySar). After a 30 minute incubation period, transport was terminated with four rinses of 4° C. depletion medium (pH 7.5). Two hundred and twenty μL of 10% trichloroacetic acid was added to each well, and the radioactivity of the supernatant quantified by liquid scintillation counting. The cells of each well are solubilized in 0.2 N NaOH/0.2% SDS and the protein quantified by using the modified Lowry assay, using bovine serum as a standard. Id. Peptide uptake will be reported as pmol* mg^−1 protein* 30 min^−1. Uptake measurements were taken after 24, 48, and 72 hours of culture in treatment media.
The MDCK cell line was maintained as described previously in the Methods section of Trial 1. […]

For assay [1], the target named is T2, PepT1-expressing Caco-2 cells (Homo sapiens, UniProt P46059).
T2 construct: GlySar uptake by the PepT1-expressing Caco-2 cells; host or cells: Caco-2 cells
T2 sequence (P46059 1-708): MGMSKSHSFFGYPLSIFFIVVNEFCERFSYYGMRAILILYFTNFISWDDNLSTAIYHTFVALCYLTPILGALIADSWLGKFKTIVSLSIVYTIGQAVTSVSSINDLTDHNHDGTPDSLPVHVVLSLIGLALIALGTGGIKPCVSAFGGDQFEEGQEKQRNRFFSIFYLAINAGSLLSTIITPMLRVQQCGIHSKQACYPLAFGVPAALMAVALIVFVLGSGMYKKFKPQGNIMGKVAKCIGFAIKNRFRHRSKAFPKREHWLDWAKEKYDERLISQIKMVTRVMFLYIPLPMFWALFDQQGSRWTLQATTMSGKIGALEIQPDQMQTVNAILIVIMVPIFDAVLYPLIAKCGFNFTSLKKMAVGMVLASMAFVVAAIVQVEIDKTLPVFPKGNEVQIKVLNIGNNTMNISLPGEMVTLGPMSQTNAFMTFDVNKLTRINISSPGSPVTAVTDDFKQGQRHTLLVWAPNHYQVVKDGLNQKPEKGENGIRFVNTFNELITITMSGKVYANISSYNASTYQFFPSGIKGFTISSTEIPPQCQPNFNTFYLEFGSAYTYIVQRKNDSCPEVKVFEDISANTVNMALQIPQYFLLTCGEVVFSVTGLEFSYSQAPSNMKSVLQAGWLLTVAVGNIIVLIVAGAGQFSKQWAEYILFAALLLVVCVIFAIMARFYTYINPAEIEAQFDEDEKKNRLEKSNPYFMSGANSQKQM
The conditions noted are these: read-out: reported Km for GlySar uptake; cited from earlier work.

Square brackets hold non-standard residues; d marks the D form. Peptide text beside a SMILES is read from it. Sar = CNCC(=O)O

In the case of `CN(CC(=O)O)C(=O)CN` [GlySar, glycylsarcosine] (H-Gly-[Sar]-OH), the “increase in GlySar uptake capacity over DMEM control media” value at canine PepT1 (cPepT1) is recorded as “about 30%”. For the same compound, in assay [1], the Km was 1100 µM.
